Test results taken from patent publication US20040115150A1, “Cosmetics and treatment method for promoting maturation of cornified envelopes” (priority 2001, published 2004).

Key:
[1] = test system: immature CE (cornified envelope) in stratum corneum; assay: CE Maturation Promoting Test, incubation varied to 37° C. and 100% relative humidity for a day; design: species or system human
Protocol: (§1) Stratum corneum containing many immature CE's were taken from the subjects suffering from skin troubles such as chapping, by means of tape stripping. To the stratum corneum still adhering to the tapes, a test solution was applied, followed by 4 days' incubation under the conditions of 30° C. in temperature and 70% in humidity. After end of the incubation, a tris-hydrochloric acid buffer solution containing dithiothreitol and sodium dodecylsulfate was added, followed by 10 minutes' heating at 100° C. The insoluble matter was collected by centrifuge at 4000 g for 10 minutes. Addition of the eluate and heating cycle was further repeated to thoroughly remove the soluble component. Thus obtained insoluble matter was used as CE.
Properties of each CE thus isolated were evaluated by the following method: CE was spotted on a piece of slide glass, air-dried and fixed in cold acetone. Hydrating the same with Dulbecco's phosphate buffered saline, it was reacted with mouse anti-human involucrin antibody (NOVOCASTRA Co.) as the primary antibody. Excessive antibody was removed by washing and the residue was reacted with FITC-labeled rabbit anti-mouse immunoglobulin antibody as the secondary antibody. Excessive antibody was removed by washing, and the residue was reacted with Nile Red dye solution, sealed and observed with a fluorescence microscope. The observed images were taken into computer via CCD camera, and the ratio of involucrin positive immature CE and that of Nile Red-positive mature CE were evaluated using an image analysis software (Win Roof) or the like.
Procedures similar to Example 1 were repeated, except that the incubation conditions were varied to 37° C. and 100% (relative humidity) for a day.

[2] = test system: immature CE (cornified envelope) in stratum corneum; assay: CE Maturation Promoting Test (tape-stripped stratum corneum, 4 days' incubation at 30° C., 70% humidity); design: species or system human; settings: test solution applied to tape-stripped stratum corneum, involucrin/Nile Red staining, mean of N = 3, water control 11.7
Protocol: as §1
Properties of each CE thus isolated were evaluated by the following method: CE was spotted on a piece of slide glass, air-dried and fixed in cold acetone. […] Excessive antibody was removed by washing, and the residue was reacted with Nile Red dye solution, sealed and observed with a fluorescence microscope. The observed images were taken into computer via CCD camera, and the ratio of involucrin positive immature CE and that of Nile Red-positive mature CE were evaluated using an image analysis software (Win Roof) or the like.

[3] = Table 3, one day, mean of N = 3, before treatment 28.3, 0.1 M MES buffer pH5.5 control 3.0
[4] = Table 2, one day, mean of N = 3, water control 36.9

In the case of `O[C@H](CS)[C@H](O)CS` (racemic) [10 mM dithiothreitol, dithiothreitol], the “Ratio of Immature CE (%)” value [1, 3] is reported as 0.33%.
For `[Ca+2].[Cl-].[Cl-]` [1 mM calcium chloride, calcium chloride], the “Ratio of Immature CE (%)” value [1, 3] was 1.83%.
With `C[N+](C)(C)CC(=O)O` [10% trimethyl glycine, trimethyl glycine] the “Ratio of Immature CE (%)” value [1, 4] was 9.3%.
`OCC(O)CO` [10% glycerin, glycerin] was tested, and the “Ratio of Immature CE (%)” value [1, 4] was 14.6% and the “Ratio of Immature CE (%)” value [2] was 6.3%.
